From US6753322B2, “2-aminocarbonyl-9H-purine derivatives” (Pfizer Inc, priority 2000, dated 2004) come the findings set out here.

In general, IC50 refers to the concentration at which inhibition is half-maximal. A higher IC50 goes with a need for much substance.

The experiment relates to neutrophils activated by fMLP. As to the kind of experiment: superoxide production from neutrophils activated by fMLP. It counts as cell-based. Particulars: Neutrophil; concentration giving 50% inhibition of fMLP-induced superoxide production compared to control response; human peripheral blood neutrophils, cytochalasin B priming, adenosine deaminase present, cytochrome C reduction readout. Here is the method: This is evaluated by determining the compound profile in an assay where superoxide production was measured from neutrophils activated by fMLP. Neutrophils were isolated from human peripheral blood using dextran sedimentation followed by centrifugation through Ficoll-Hypaque solution. Any contaminating erythrocytes in the granulocyte pellet were removed by lysis with ice-cold distilled water. Superoxide production from the neutrophils was induced by fMLP in the presence of a priming concentration of cytochalasin B. Adenosine deaminase was included in the assay to remove any endogenously produced adenosine that might suppress superoxide production. The effect of the compound on the fMLP-induced response was monitored colorometrically from the reduction of cytochrome C within the assay buffer. The potency of the compounds was assessed by the concentration giving 50% inhibition (IC50) compared to the control response to fMLP.

As for `CCNC(=O)[C@H]1O[C@@H](n2cnc3c(NCC(c4ccccc4)c4ccccc4)nc(C(=O)N[C@@H]4CCN(C(=O)NCCN(C(C)C)C(C)C)C4)nc32)[C@H](O)[C@@H]1O` [Example 23], the half-maximal inhibitory concentration (IC50) was below 100 nM.
Then `CCCCN(CCCC)CCNC(=O)NCCNC(=O)c1nc(NCC(c2ccccc2)c2ccccc2)c2ncn([C@@H]3O[C@H](C(=O)NCC)[C@@H](O)[C@H]3O)c2n1` [Example 9], with below 100 nM.
Next, `CCNC(=O)[C@H]1O[C@@H](n2cnc3c(NCC(c4ccccc4)c4ccccc4)nc(C(=O)NCCNC(=O)NC4CCCCC4)nc32)[C@H](O)[C@@H]1O` [Example 15]: below 100 nM; `CCNC(=O)[C@H]1O[C@@H](n2cnc3c(NCC(c4ccccc4)c4ccccc4)nc(C(=O)NCCNC(=O)NCC4CCN(Cc5ccccc5)CC4)nc32)[C@H](O)[C@@H]1O` [Example 12]: below 100 nM.
`CCNC(=O)[C@H]1O[C@@H](n2cnc3c(NCC(c4ccccc4)c4ccccc4)nc(C(=O)NCCNC(=O)NCCN4CCCCC4)nc32)[C@H](O)[C@@H]1O` [Example 1, 6-[(2,2-Diphenylethyl)amino]-9-{(2R,3R,4S,5S)-5-[(ethylamino)carbonyl]-3,4-dihydroxytetrahydro-2-furanyl}-N-{2-[({[2-(1-piperidinyl)ethyl]amino}carbonyl)amino]ethyl}-9H-purine-2-carboxamide] came in with an IC50 below 100 nM.
Next, `CCNC(=O)[C@H]1O[C@@H](n2cnc3c(NCC(c4ccccc4)c4ccccc4)nc(C(=O)NCCCNC(=O)NCCN4CCCCC4)nc32)[C@H](O)[C@@H]1O` [Example 18]: below 100 nM; `CCNC(=O)[C@H]1O[C@@H](n2cnc3c(NCC(c4ccccc4)c4ccccc4)nc(C(=O)N[C@@H]4CCN(C(=O)NCc5ccccc5)C4)nc32)[C@H](O)[C@@H]1O` [Example 24]: below 100 nM.
Then `CCNC(=O)[C@H]1O[C@@H](n2cnc3c(NCC(c4ccccc4)c4ccccc4)nc(C(=O)N[C@H]4CC[C@H](NC(=O)NCCN5CCCCC5)CC4)nc32)[C@H](O)[C@@H]1O` [Example 20], with below 100 nM; and `CCNC(=O)[C@H]1O[C@@H](n2cnc3c(NCC(c4cccc(Cl)c4)c4cccc(Cl)c4)nc(C(=O)NCCNC(=O)NCCN4CCCCC4)nc32)[C@H](O)[C@@H]1O` [Example 32, 6-{[2,2-Bis(3-chlorophenyl)ethyl]amino}-9-{(2R,3R,4S,5S)-5-[(ethylamino)carbonyl]-3,4-dihydroxytetrahydro-2-furanyl}-N-{2-[({[2-(1-piperidinyl)ethyl]amino}carbonyl)amino]ethyl}-9H-purine-2-carboxamide], with below 100 nM; and `CCNC(=O)[C@H]1O[C@@H](n2cnc3c(NCC(c4ccccc4)c4ccccc4)nc(C(=O)NC4CCN(C(=O)NCCN(C(C)C)C(C)C)CC4)nc32)[C@H](O)[C@@H]1O` [Example 22], with below 100 nM.
